Measured values reported in patent US20240059655A1, “HETEROCYCLIC G-PROTEIN-COUPLED RECEPTOR 52 (GPR52) AGONISTS” (Board of Regents, The University of Texas System, priority 2020, published 2024).
Entries after “also recorded” stand apart in the source; their conditions may differ.

How the values were obtained:
In vivo PK in rats = details: rat; for AUC(0-inf): mean ± SEM
Method: In Vivo PK and Brain Permeability Studies. […] 100 μL of blood (yielding ˜50 μL of plasma) samples are taken from the animal's jugular vein and placed into micro K2EDTA tubes. Blood samples were placed on ice and centrifuged at 8000 rpm for 5 min at 4° C. to generate plasma sample within 0.5 h of collection. Brain samples were collected at 0.25 and 1 h post-dosing. All samples were stored at −20° C. […] The Sundia animal facility is approved with yearly inspection by the Shanghai Laboratory Animal Management Committee. All treatment assignments were blinded to investigators who performed PK assays and end point statistical analyses. […] The peak concentration (Cmax) was directly obtained by visual inspection of the plasma concentration-time profile. The elimination rate constant (λ) was obtained by the least-squares fitted terminal log-linear portion of the slope of the plasma concentration-time profile. […] The area under the plasma concentration-time curve from 0 to time t (AUC0-t) was evaluated using the linear trapezoidal rule and further extrapolated to infinity (AUC0-∞) according to the following equation: AUC0-∞=AUC0-t+Clast/λ. The pharmacokinetic parameters were presented as mean±SEM.

5-HT2C = 5-HT2C (Homo sapiens (Human), UniProt P28335); assay: NIMH-PDSP broad-panel counter screening (binding)
hERG potassium channel = hERG potassium channel (Homo sapiens (Human), UniProt Q12809); assay: NIMH-PDSP broad-panel counter screening (binding)
[1] = Brain permeability in rats; format: in vivo; details: male, Sprague-Dawley, brain/plasma, rat, IV 10 mg/kg, read-out: Brain/Plasma Ratio
Method: In Vivo PK and Brain Permeability Studies. Male Sprague-Dawley rats (n=3 per treatment group; […] Rats were randomly assigned to treatment groups. […] The rat was restrained manually at the designated time points (0.08, 0.25, 0.5, 1.0, 2.0, 4.0, 8.0, and 24 h post-dosing for IV; 0.25, 0.5, 1.0, 2.0, 4.0, 8.0, and 24 h post-dosing for PO). 100 μL of blood (yielding ˜50 μL of plasma) samples are taken from the animal's jugular vein and placed into micro K2EDTA tubes. Blood samples were placed on ice and centrifuged at 8000 rpm for 5 min at 4° C. to generate plasma sample within 0.5 h of collection. Brain samples were collected at 0.25 and 1 h post-dosing. All samples were stored at −20° C. The concentration of 12c in each sample was analyzed by Sundia MediTech Co., Ltd. The study and the related standard operating procedures were reviewed and approved by the Sundia Institutional Animal Care and Use Committee. The Sundia animal facility is approved with yearly inspection by the Shanghai Laboratory Animal Management Committee. All treatment assignments were blinded to investigators who performed PK assays and end point statistical analyses.

C57/BL6 mice = assay: Locomotor activity and amphetamine-induced hyperlocomotion in mice; details: P<0.05 vs vehicle; for AMPH-induced horizontal activity, first 30 min after AMPH: AMPH 3 mg/kg IP
GABAA = assay: NIMH-PDSP broad-panel counter screening (binding); details: mean percent inhibition of binding
human GPR52 = human GPR52 (Homo sapiens (Human), UniProt Q9Y2T5); assay: Glosensor cAMP assay in HEK293 cells transiently expressing human GPR52; format: cell-based; details: relative to compound 4 as 100% and 0.5% DMSO as 0%, mean ± SEM, "—" not detected
[2] = test system: HEK293 cells lacking GPR52; assay: cAMP Glosensor control in HEK293 cells lacking GPR52 (empty vector); details: HEK293 cells with empty vector, 0.1 nM-10 μM
[3] = male, Sprague-Dawley, plasma, IV 10 mg/kg
[4] = male, Sprague-Dawley, plasma, PO 20 mg/kg

Chain of hERG potassium channel (Q12809 whole entry): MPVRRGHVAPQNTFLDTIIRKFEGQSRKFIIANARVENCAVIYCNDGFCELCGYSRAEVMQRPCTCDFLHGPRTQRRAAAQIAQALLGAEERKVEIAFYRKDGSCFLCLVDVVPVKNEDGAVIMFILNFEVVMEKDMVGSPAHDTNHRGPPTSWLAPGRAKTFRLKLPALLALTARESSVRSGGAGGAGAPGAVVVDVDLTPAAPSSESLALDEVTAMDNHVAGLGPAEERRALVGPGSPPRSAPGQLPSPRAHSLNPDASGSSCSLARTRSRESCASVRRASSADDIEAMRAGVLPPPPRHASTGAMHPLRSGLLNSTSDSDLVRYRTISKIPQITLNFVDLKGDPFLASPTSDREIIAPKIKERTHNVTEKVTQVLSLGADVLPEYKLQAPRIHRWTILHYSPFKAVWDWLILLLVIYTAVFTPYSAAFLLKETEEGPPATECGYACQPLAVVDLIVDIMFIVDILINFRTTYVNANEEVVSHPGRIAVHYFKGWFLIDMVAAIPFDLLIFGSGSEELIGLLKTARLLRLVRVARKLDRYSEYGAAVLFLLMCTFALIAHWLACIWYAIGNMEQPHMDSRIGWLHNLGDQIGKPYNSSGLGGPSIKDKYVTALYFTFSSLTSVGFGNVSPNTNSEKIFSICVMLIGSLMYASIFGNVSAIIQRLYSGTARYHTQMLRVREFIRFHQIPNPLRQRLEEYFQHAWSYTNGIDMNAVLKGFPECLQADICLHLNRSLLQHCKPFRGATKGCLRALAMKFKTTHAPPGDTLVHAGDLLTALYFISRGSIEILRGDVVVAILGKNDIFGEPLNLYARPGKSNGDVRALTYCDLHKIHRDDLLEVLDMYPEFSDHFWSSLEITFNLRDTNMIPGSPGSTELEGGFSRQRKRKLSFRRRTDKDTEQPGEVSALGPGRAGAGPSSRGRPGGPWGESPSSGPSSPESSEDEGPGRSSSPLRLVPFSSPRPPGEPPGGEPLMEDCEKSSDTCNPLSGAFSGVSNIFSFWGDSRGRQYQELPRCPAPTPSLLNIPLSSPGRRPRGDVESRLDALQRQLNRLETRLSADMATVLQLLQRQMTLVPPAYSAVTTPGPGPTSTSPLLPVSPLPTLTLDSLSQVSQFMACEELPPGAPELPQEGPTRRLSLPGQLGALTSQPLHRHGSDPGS
Chain of human GPR52 (Q9Y2T5 whole entry): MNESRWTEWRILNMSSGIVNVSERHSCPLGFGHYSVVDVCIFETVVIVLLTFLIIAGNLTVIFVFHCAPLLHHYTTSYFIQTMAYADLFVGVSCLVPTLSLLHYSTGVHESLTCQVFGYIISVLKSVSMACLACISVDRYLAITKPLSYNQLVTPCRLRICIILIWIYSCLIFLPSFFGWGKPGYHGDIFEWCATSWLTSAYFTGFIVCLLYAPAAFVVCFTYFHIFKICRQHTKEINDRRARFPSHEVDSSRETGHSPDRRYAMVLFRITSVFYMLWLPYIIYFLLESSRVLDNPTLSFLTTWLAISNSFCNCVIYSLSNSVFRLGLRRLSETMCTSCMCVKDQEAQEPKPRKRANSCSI
Chain of 5-HT2C (P28335 33-458, species assumed): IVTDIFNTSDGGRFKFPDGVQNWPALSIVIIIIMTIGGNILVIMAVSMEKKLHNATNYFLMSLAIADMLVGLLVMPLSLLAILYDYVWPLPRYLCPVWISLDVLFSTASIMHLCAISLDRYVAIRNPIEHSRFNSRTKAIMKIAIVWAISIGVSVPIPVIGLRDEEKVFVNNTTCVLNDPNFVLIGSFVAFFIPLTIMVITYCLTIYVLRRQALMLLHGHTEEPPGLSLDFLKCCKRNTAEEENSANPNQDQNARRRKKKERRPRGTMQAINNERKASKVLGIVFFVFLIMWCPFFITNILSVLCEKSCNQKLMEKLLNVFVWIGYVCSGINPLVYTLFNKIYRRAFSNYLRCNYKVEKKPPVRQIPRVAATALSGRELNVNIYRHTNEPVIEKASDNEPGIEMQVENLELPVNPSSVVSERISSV

O=C(NCCO)c1cccc2c1CCN2c1cc(Cc2cc(F)cc(C(F)(F)F)c2)ncn1 [Compound 12c, 1-(6-(3-Fluoro-5-(trifluoromethyl)benzyl)pyrimidin-4-yl)-N-(2-hydroxyethyl)indoline-4-carboxamide]
Cmax (In vivo PK in rats; [3]): 6730 ng/mL
clearance (In vivo PK in rats; [3]): 18.3 mL/min/kg
AUC(0-inf) (In vivo PK in rats; [3]): 9030 ng·h/mL
Vd (In vivo PK in rats; male, Sprague-Dawley, plasma, IV 10 mg/kg, read-out: Vss): 1.5 L/kg
Cmax (In vivo PK in rats; [4]): 3410 ng/mL
AUC(0-inf) (In vivo PK in rats; [4]): 13700 ng·h/mL
bioavailability (In vivo PK in rats; male, Sprague-Dawley, plasma, oral, 20 mg/kg): 76%
CL (In vivo PK in rats; IV 10 mg/kg): 18.3 ± 1.7 mL/min/kg
CL (In vivo PK in rats; PO 20 mg/kg): 25 ± 5 mL/min/kg
Vss (In vivo PK in rats; PO 20 mg/kg): 5.5 ± 1.16 L/kg
F (%) (In vivo PK in rats; absolute oral bioavailability, PO 20 mg/kg vs IV 10 mg/kg): 76 ± 15%
Ki (5-HT2C): > 10 µM
hERG potassium channel binding activity (hERG potassium channel; 10 μM): did not show any
% inhibition (10 μM) (hERG potassium channel; hERG, mean percent inhibition of binding): 11.04%
Kp at […] ([1]; 0.25 h): 0.28
Kp at 1 h ([1]; 1 h): 0.39
AMPH-induced horizontal activity, first 30 min after AMPH (C57/BL6 mice; 3 mg/kg IP): suppressed AMPH-induced horizontal activity
horizontal activity/30 min after compound injection (C57/BL6 mice; 3 mg/kg IP): suppressed horizontal activity
AMPH-induced horizontal activity, first 30 min after AMPH (C57/BL6 mice; 10 mg/kg IP): suppressed AMPH-induced horizontal activity
horizontal activity/30 min after compound injection (C57/BL6 mice; 10 mg/kg IP): suppressed horizontal activity
% inhibition (10 μM) (GABAA): 5.98%
Emax (human GPR52; HEK293, cAMP assay, read-out: Emax (%)): 136%
Emax (%) (human GPR52; cAMP assay): 134%
cAMP increase in cells lacking GPR52 [2]: no increase in cAMP; also recorded: did not increase cAMP
